Experiments:
[1] = test system: CUG-RNA foci in DM1 myoblasts; assay: FISH analysis of nuclear CUG-RNA foci in DM1 myoblasts; format: cell-based, human; conditions: 4 days
Method: (§1) DM1 myoblasts were then treated with 10 μM of either RCN-001 or the vehicle (DMSO) for 4 days and then examined by FISH using a Cy3 (CAG)10 probe.
Normal myoblasts were purchased from Lonza, Inc. DM1 myoblasts were a gift from Dr. Charles Thornton. Normal and DM1 myoblasts were maintained in SkGM Medium (Lonza, Inc.) containing 10% Fetal Bovine Serum and 1% Penicillin-Streptomycin, 5% CO2 at 37° C. Human Embryonic Kidney 293 Cells (293HEK) were maintained in Dulbecco's Modification of Eagle's Medium (DMEM) from Cellgro supplemented with 10% Fetal Bovine Serum and 1% Penicillin-Streptomycin, 5% CO2 at 37° C.
(§2) CUG-RNA foci were detected by performing FISH on untreated DM1 myoblasts and DM1 myoblasts following treatment. For FISH analysis, DM1 myoblasts were plated on a 24-well clear bottom polystyrene plate with circular glass coverslips followed by treatment. Prior to FISH analysis, cells were fixed using 4% paraformaldehyde in 1×PBS for 20 min at room temperature. FISH analysis was performed using a Cy3 conjugated (CAG)10 oligonucleotide probe (Integrated DNA Technologies, Inc.) as described by Taneja et al, 1995 and Dansithong et al, 2005. CUG-RNA foci were observed as a red signal using fluorescence microscopy. Immunofluorescence was performed as described by Dansithong et al, 2008. Endogenous SHARP was detected using SHARP polyclonal antibodies from Bethyl at a dilution of 1:1000. The secondary antibodies conjugated with FITC (Invitrogen) were used at a 1:2000 dilution. Chloride channel 1 (Clcn1 a.k.a. CIC-1) was detected using CIC-1 polyclonal antibodies from Santa Cruz. The secondary antibodies conjugated with Alexa Flour 488 (Invitrogen) were used at a 1:2000 dilution. FISH analysis in mouse muscle section was carried out as described in Mancodi et al, 2000 (9).

[2] = test system: SHARP; assay: SHARP immunofluorescence in DM1 myoblasts; format: cell-based, human; conditions: RCN-001 treatment for 4 days (not shown)
Method: as §1, §2

[3] = test system: CUG foci in HSALR mice; assay: CUG foci (FISH) in muscle of treated HSALR mice; format: in vivo; conditions: 40 mg/kg i.p. each day for 7 days
Method: Red: CUG foci, detected with a (CAG)10Cy3 probe Blue: DAPI stain of nuclei.
Furthermore, CUG foci, abnormal RNA splicing, myotonia and reduced Clcn1 protein levels are reversed in HSA^LR mice treated with RCN-001: Age and gender matched HSA^LR mice were treated with either vehicle or 40/mgs/kg of RCN-001 injected i.p. each day for 7 days. After treatment CUG foci were examined and RNA isolated from skeletal muscle was subjected to RT-PCR analysis to examine the efficacy of RCN-001 in correcting the splice defects of Clcn1, lbd3 and Serca-1 RNAs, which are abnormally spliced in DM1 (20).
CUG-RNA foci were detected by performing FISH on untreated DM1 myoblasts and DM1 myoblasts following treatment. For FISH analysis, DM1 myoblasts were plated on a 24-well clear bottom polystyrene plate with circular glass coverslips followed by treatment. Prior to FISH analysis, cells were fixed using 4% paraformaldehyde in 1×PBS for 20 min at room temperature. […] CUG-RNA foci were observed as a red signal using fluorescence microscopy. […] Endogenous SHARP was detected using SHARP polyclonal antibodies from Bethyl at a dilution of 1:1000. […] Chloride channel 1 (Clcn1 a.k.a. CIC-1) was detected using CIC-1 polyclonal antibodies from Santa Cruz. […]

[4] = test system: HSALR mice; assay: Myotonic runs recorded in muscle of treated HSALR mice; format: in vivo; conditions: gastrocnemius muscle, 40 mg/kg IP once a day for 14 days, p<0.05 vs vehicle
From the text: For all animals the recording electrode was inserted into the test muscle 20 times. The number of myotonic runs ≧1 second in the gastrocnemius muscle of individual HSA^LR mice treated with either the saline control or RCN-001 are shown.
Importantly, RCN-001 reduces the number of myotonic runs of ≧1 second (p<0.05) (FIG. 5), total time of myotonic runs ≧1 sec (4.04 s±2.9 vehicle; 0.99 s±1.4 RCN-001; p<0.05) and length of the longest run (1.96 s±0.97 vehicle; 0.73 s±0.71 RCN-001; p<0.05) in the gastrocnemius muscle of HSA^LR mice. […] Methods are detailed in the legend of FIG. 5.
Treatment in HSALR mice. The HSALR transgenic mice expressing (CTG)250 in the 3′UTR of the human skeletal actin mRNA as described in Mankodi et al, 2000 were utilized for this study (a generous gift from Dr. Charles Thornton). Treatment in mice was done by intraperitoneal injection using 40 mg/kg once a day for 7 or 14 days of RCN-001 or vehicle alone. Total RNA was isolated from skeletal muscle of treated HSALR mice using Trizole (Invitrogen, USA) following the manufacture's protocol. cDNA synthesis and PCR was performed as described in Dansithong et al, 2008. PCR amplification was carried out with the following primers—

[5] = test system: normal and DM1 myoblasts; assay: Off-target splicing and RNA steady-state levels (semi-quantitative RT-PCR) in myoblasts; format: cell-based, human
From the text: Semi-quantitative RT-PCR was done as previously described (7,17, 23). Abbreviations: U: Untreated; V: vehicle treated; 16: treated with RCN-001.
Results for wild-type and HSA^LR mice are not shown.

CCCCCCc1cc2cc(-c3nnc(-c4cccc(OC)c4)o3)c(=O)oc2cc1O [RCN-001]
decrease in cells containing 3 or more foci ([1]; 10 μM, vs vehicle (DMSO)): ~5 fold | increase in cells containing no foci ([1]; 10 μM, vs vehicle (DMSO)): ~10 fold | # of Foci (percentage) 0-1: Percentage of cells with no or 1 nuclear foci ([1]; Table 1, 10 μM, FISH): 48 percentage | # of Foci (percentage) >2: Percentage of cells with 2 or greater nuclear foci ([1]; Table 1, 10 μM, FISH): 52 percentage | SHARP mislocalization / nuclear SHARP levels in DM1 myoblast [2]: significantly reversed SHARP mislocalization and re-established nuclear SHARP levels | load of the CUG foci [3]: reduced | number of myotonic runs of ≧1 second [4]: reduces | off target effects on steady-state levels of endogenous (CUG)6-25 repeat encoding RNAs ([5]; normal and DM1 myoblasts (FIG. 6C)): does not show significant off target effects | splice patterns of RNAs that are abnormally spliced in DM1 ([5]; normal myoblasts (FIG. 6B)): does not alter splice patterns | splice patterns of RNAs that are normally spliced in DM1 ([5]; normal or DM1 myoblasts (FIG. 6A)): does not alter splice patterns
